One block for each molecule: values may come before it.
Key:
[1] = target: T1, MFN1-MGD (minimal GTPase domain of human MFN1) (Homo sapiens, UniProt Q8IWA4, DEL365-693); test: isothermal titration calorimetry; assay type: binding
T1 sequence (Q8IWA4 1-364): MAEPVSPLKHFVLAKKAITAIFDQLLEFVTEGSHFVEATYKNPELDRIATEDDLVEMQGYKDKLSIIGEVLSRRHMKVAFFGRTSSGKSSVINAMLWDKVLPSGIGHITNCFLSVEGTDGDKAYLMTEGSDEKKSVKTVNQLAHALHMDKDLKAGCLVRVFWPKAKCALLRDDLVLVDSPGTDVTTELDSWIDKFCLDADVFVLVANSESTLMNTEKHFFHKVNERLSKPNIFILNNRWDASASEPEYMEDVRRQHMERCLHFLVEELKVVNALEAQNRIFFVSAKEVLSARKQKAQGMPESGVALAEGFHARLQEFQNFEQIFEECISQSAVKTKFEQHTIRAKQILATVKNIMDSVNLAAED
T1 sequence (Q8IWA4 694-741): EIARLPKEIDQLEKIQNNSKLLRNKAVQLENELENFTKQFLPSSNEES

AUC = target: the molecule itself; test: AUC

Kd [1]: 91.7 µM
Molecule: Nc1nc2c(ncn2[C@@H]2O[C@H](COP(=O)(O)OP(=O)(O)O)[C@@H](O)[C@H]2O)c(=O)[nH]1 [GDP]

B1: human MFN1 minimal GTPase domain (MGD), wild type (domain or fragment)
chain: MAEPVSPLKHFVLAKKAITAIFDQLLEFVTEGSHFVEATYKNPELDRIATEDDLVEMQGYKDKLSIIGEVLSRRHMKVAFFGRTSSGKSSVINAMLWDKVLPSGIGHITNCFLSVEGTDGDKAYLMTEGSDEKKSVKTVNQLAHALHMDKDLKAGCLVRVFWPKAKCALLRDDLVLVDSPGTDVTTELDSWIDKFCLDADVFVLVANSESTLMNTEKHFFHKVNERLSKPNIFILNNRWDASASEPEYMEDVRRQHMERCLHFLVEELKVVNALEAQNRIFFVSAKEVLSARKQKAQGMPESGVALAEGFHARLQEFQNFEQIFEECISQSAVKTKFEQHTIRAKQILATVKNIMDSVNLAAEDGSGSGSGGSEIARLPKEIDQLEKIQNNSKLLRNKAVQLENELENFTKQFLPSSNEES
stoichiometry N (AUC): 2

From PMC5147005 (The Journal of Cell Biology, 2016)
